Values belong to the molecule of their own block, whether it stands above or below them.
Legend:
[1] = target: T1, PPARγ (Homo sapiens, UniProt P37231); experiment: PPARγ-dependent transactivation assay in HEK293T cells; format: cell-based; parameters: the vector pFA-PPARγ-LBD-GAL4-DBD encoding the hybrid protein PPARγ-LBD-GAL4-DBD; expressed in transfected cells; host or cells: HEK293T cells; (transient transfection); conditions: for antagonistic effects on the time-course of the response to agonist stimulation: 10 μM compound, 1 μM rosiglitazone; for inhibition of the rosiglitazone-induced transactivation of PPARγ: 1 or 10 μM compound with 0.1-10 μM rosiglitazone
T1 sequence (P37231 238-503 limits assumed): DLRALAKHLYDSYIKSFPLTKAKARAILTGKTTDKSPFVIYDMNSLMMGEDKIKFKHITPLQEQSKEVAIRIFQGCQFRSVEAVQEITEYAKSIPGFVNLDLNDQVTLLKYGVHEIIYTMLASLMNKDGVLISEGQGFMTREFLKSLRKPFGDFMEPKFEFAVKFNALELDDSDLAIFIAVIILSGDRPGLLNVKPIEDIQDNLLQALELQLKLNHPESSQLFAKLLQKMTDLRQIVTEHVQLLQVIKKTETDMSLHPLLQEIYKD
Experimental: For the PPARγ-dependent transactivation assay, 1×10^4 HEK293T cells per well were seeded in 96-well plates and cultured overnight as described above to allow attachment of the HEK293T cells. The next day, the HEK293T cells were transiently transfected using the JetPRIME™ transfection reagent (PEQLAB Biotechnologie GmbH, Erlangen, Germany), as described by the manufacturer, with 0.01 μg per well pFA-PPARγ-LBD-GAL4-DBD, kindly provided by Prof. Dr. Manfred Schubert-Zsilavecz (Institute of Pharmaceutical Chemistry, Department of Biochemistry, Chemistry and Pharmacy, Goethe-University Frankfurt am Main, Germany), 0.09 μg per well pFR-Luc (Stratagene, La Jolla, USA) and 0.0005 μg per well pRL-CMV (Promega GmbH, Mannheim, Germany). After 4 h, the transfection medium was replaced and the HEK293T cells were cultured in fresh growth medium for another 24 h. For the transient transfection of 1×10^6 HuT-78 cells and Jurkat T cells per well, the SuperFect™ transfection reagent (QIAGEN GmbH, Hilden, Germany) was used as described by the producer with 0.2 μg per well pFA-PPARγ-LBD-GAL4-DBD, 0.8 μg per well pFR-Luc and 0.05 μg per well pRL-CMV. After 24 h, 1 ml fresh growth medium was added and the cells were cultured for another 48 h. The PPARγ-dependent transactivation assay in HEK293T cells using a 96-well plate format was performed in quadruple and in HuT-78 cells and Jurkat T cells using a 12-well plate format in triplicate.
(§1) The PPARγ-dependent transactivation assay is based on the vector pFA-PPARγ-LBD-GAL4-DBD encoding the hybrid protein PPARγ-LBD-GAL4-DBD and the reporter vector pFR-Luc, carrying a GAL4-responsive element in front of the Firefly luciferase gene. These two vectors were co-transfected, as described above, in combination with the control vector pRL-CMV, encoding Renilla luciferase, to normalize Firefly luciferase activity for transfection efficiency. […] Transactivation was analysed using a 96-well plate format in a Mithras LB940 multimode reader (Berthold Technologies, Bad Wildbad, Germany). The IC50 value for MTTB was determined by fitting the data to a sigmoidal dose-response curve using the GraphPad Software Prism (La Jolla, USA).
Firefly luciferase luminescence values and control Renilla luciferase luminescence values were determined in each sample. The ratios of Firefly to Renilla luciferase luminescence were used to normalize luciferase activity values.

[2] = system: HEK293T cells; experiment: Cell viability, MTT assay, HEK293T cells; format: cell-based, human; conditions: 24 h
Experimental: (§2) HuT-78 cells, Jurkat T cells and HEK293T cells, were seeded in 96-well plates at a density of 5×10^4 cells per well and cultured overnight as described above to allow attachment of the HEK293T cells. […] As control, DMSO alone was used. After 24 h stimulation, 3-(4, 5-dimethylthiazol-2-yl)-2, 5-diphenyltetrazolium bromide (MTT) solution (5 mg ml-1 in phosphate buffered saline (PBS)) was added and the cells were incubated for two more hours at 37° C. (Mosmann, 1983). Afterwards, the cells were lysed with MTT lysis buffer. Following cell lysis, cell viability was measured at an absorbance of 560 nm in a Mithras LB940 multimode reader. The cell viability studies using a 96-well plate format were performed in octet.

[3] = system: Jurkat T cells; experiment: Intracellular accumulation by LC-MS/MS, Jurkat T cells; format: in vitro ADME
Text: (§3) Accumulation was expressed as a percentage of the ratio of intracellular to extracellular concentration (I/E).

[4] = system: HuT-78 cells; experiment: Cell viability, MTT assay, HuT-78 cells; format: cell-based, human
Experimental: as §2

[5] = system: Jurkat T cells; experiment: Cell viability, MTT assay, Jurkat T cells; format: cell-based
Experimental: as §2

[6] = system: HEK293T cells; experiment: Intracellular accumulation by LC-MS/MS, HEK293T cells; format: in vitro ADME, human
Text: as §3

[7] = system: HuT-78 cells; experiment: Intracellular accumulation by LC-MS/MS, HuT-78 cells; format: in vitro ADME, human
Text: as §3

[8] = target: T1, PPARγ; experiment: PPARγ-dependent transactivation assay in Jurkat T cells; format: cell-based; parameters: the vector pFA-PPARγ-LBD-GAL4-DBD encoding the hybrid protein PPARγ-LBD-GAL4-DBD; expressed in transfected cells; host or cells: HEK293T cells; Jurkat T cells (transient transfection); conditions: for inhibition of the rosiglitazone-induced transactivation of PPARγ / agonistic effects (transactivation of PPARγ by the compound alone): 24 h; for inhibition of the rosiglitazone-induced transactivation of PPARγ: 1 or 10 μM compound with 0.1-10 μM rosiglitazone
Experimental: as §1, with “Dr. […] Schubert-Zsilavecz (Institute of Pharmaceutical Chemistry, Department of Biochemistry, Chemistry and Pharmacy, Goethe-University Frankfurt am Main, Germany), 0.09 μg per well pFR-Luc (Stratagene, La Jolla, USA) and 0.0005 μg per well pRL-CMV (Promega GmbH, Mannheim, Germany). After 4 h, the transfection medium was replaced and the HEK293T cells were cultured in fresh growth medium for another 24 h. […] After 24 h, 1 ml fresh growth medium was added and the cells were cultured for another 48 h. The PPARγ-dependent transactivation assay in HEK293T cells using a 96-well plate format was performed in quadruple and in HuT-78 cells and Jurkat T cells using a 12-well plate format in triplicate. The PPARγ-dependent” for “The PPARγ-dependent”

[9] = HEK293T cells, 24 h, compound alone

antagonistic effects on the time-course of the response to agonist stimulation ([1]; HEK293T cells): non-existent antagonistic effects | agonistic effects (transactivation of PPARγ by the compound alone) [1, 9]: no agonistic effects
SMILES: CC(C)C[C@H](NC(=O)OCC1c2ccccc2-c2ccccc21)C(=O)O [FMOC-L-leucine, N-(9-fluorenylmethoxycarbonyl)-L-leucine]

intracellular accumulation, fold less than that of MTTB ([3]; 10 μM): about 100 fold | intracellular accumulation, fold lower compared to MTTB ([6]; 10 μM): 10 fold | intracellular accumulation, fold less than that of MTTB ([7]; 10 μM): about 100 fold | inhibition of the rosiglitazone-induced transactivation of PPARγ ([1]; HEK293T cells, 24 h): full antagonism | agonistic effects (transactivation of PPARγ by the compound alone) [1, 9]: surprisingly high agonistic effects | inhibition of the rosiglitazone-induced transactivation of PPARγ [8]: full antagonism | agonistic effects (transactivation of PPARγ by the compound alone) ([8]; compound alone): surprisingly high agonistic effects | PPARγ transactivation by the compound alone ([8]; compound alone, dose-independent): approximately 3 fold
SMILES: O=C(Nc1ccccc1)c1cc([N+](=O)[O-])ccc1Cl [GW9662, 2-chloro-5-nitrobenzanilide]
concentrations without cytotoxic effects / loss of viability [2]: ≤ 30 µM | concentrations at which clearly cytotoxic ([4]; MTT, 24 h): above 20 μM | concentrations at which clearly cytotoxic ([5]; MTT, 24 h): > 30 µM | antagonistic effects on the time-course of the response to agonist stimulation ([1]; HEK293T cells): inhibited the time-course of the response to agonist

antagonistic effects on the time-course of the response to agonist stimulation ([1]; HEK293T cells): non-existent antagonistic effects | concentrations that transactivated PPARγ [1, 9]: above 1 μM
SMILES: O=C1NC(=O)C(Cc2ccc3cc(OCc4ccccc4F)ccc3c2)S1 (centres unmarked) [MCC-555, netoglitazone]

intracellular accumulation, fold higher as compared to GW9662 [3]: approximately 100 fold | intracellular accumulation (intracellular as percentage of extracellular concentration) ([3]; 10 μM, after 24 h): approximately 10% | uptake, fold higher than of GW9662 [6]: 10 fold | intracellular accumulation (intracellular as percentage of extracellular concentration) ([6]; 10 μM, after 24 h): approximately 25% | intracellular accumulation, fold higher as compared to GW9662 [7]: approximately 100 fold | intracellular accumulation (intracellular as percentage of extracellular concentration) ([7]; 10 μM, after 24 h): approximately 10% | IC50 [1]: 4.3 µM | inhibition of the rosiglitazone-induced transactivation of PPARγ ([1]; HEK293T cells, 24 h): dose-dependent inhibition | agonistic effects (transactivation of PPARγ by the compound alone) [1, 9]: no agonistic effect | inhibition of the rosiglitazone-induced transactivation of PPARγ [8]: dose-dependent inhibition | agonistic effects (transactivation of PPARγ by the compound alone) ([8]; compound alone): no agonistic effect
SMILES: CCCC/C(=C\c1cc(OCc2ccc3nc(C(F)(F)F)cc(OC)c3c2)ccc1OCc1ccc(C(F)(F)F)cc1)C(=O)O [MTTB, (E)-2-(5-((4-methoxy-2-(trifluoromethyl)quinolin-6-yl)methoxy)-2-((4-(trifluoromethyl)benzyl)oxy)-benzylidene) hexanoic acid]
concentrations without cytotoxic effects / loss of viability [2]: up to 10 μM | cytotoxicity in contrast to GW9662 [4]: less cytotoxicity | concentrations without cytotoxic effects ([4]; MTT, 24 h): up to 10 μM | cytotoxicity in contrast to GW9662 [5]: less cytotoxicity | concentrations without cytotoxic effects ([5]; MTT, 24 h): up to 10 μM
